Assay results: patent publication US9200008B2 (ASKA PHARMACEUTICAL CO., LTD., priority 2010, dated 2015)

System: Human prostate cancer cell lines (PC-3 cells)
Experiment: Measurement of cell death-inducing activity (Test Example 1)
Type: cell-based
Conditions: PC-3, 48 h, 48 hours after addition, tested at 10, 1, 0.1, 0.025 and 0.00625 μmol/L, qualitative evaluation of 10 fields, read-out: Concentration showing the cell death-inducing activity (cell death-inducing rate not less than 40%)
Outline: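 Compound treatment lasted 48 h at 10 to 0.00625 μmol/L (five levels, DMSO as control) on PC-3 cells pre-cultured 48 h at 37 °C, 5% CO2 after seeding at 1×10^5 cells/well. A cell death-inducing rate of 40% or more counted as active.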

Row | Compound | minimal effective concentration [µM]
1 | COc1cc(Cl)ccc1-c1cc(NC(=O)OCc2ccc3c(c2)nc2n3CCOC2)n(C)n1 [Example 9-247] | 0.00625
2 | O=C(N/N=C/c1ccc(O)c(F)c1)c1cc(-c2ccc(Cl)cc2Cl)n[nH]1 [Example 21-18] | 10
3 | COc1cc(Cl)ccc1-c1cc(NC(=O)OC(C)c2ccc3c(c2)ncn3C)n(C)n1 (stereo not drawn) [Example 9-338] | 10
4 | COc1ccc(/C=N/NC(=O)c2cc(-c3ccc(Cl)cc3)oc2C)cc1O [Example 23-166, 5-(4-Chlorophenyl)-2-methylfuran-3-carboxylic acid [1-(3-hydroxy-4-methoxyphenyl)methylidene]hydrazide] | 1
5 | Cc1ccc(-c2nc(C)c(COC(=O)Nc3ccc4c(c3)nc3n4CCSC3)s2)c(C)c1 [Example 43-3] | 0.1
6 | CCCn1cnc2cc(COC(=O)Nc3sc(-c4ccc(C)cc4C)nc3C)ccc21 [Example 9-69] | 1
7 | Cc1cc(F)ccc1-c1nc(C)c(NC(=O)OCc2ccc3c(c2)nc2n3CCC2)s1 [Example 9-106] | 0.025
8 | Cc1ccc(-c2cc(COC(=O)Nc3ccc4c(c3)nc3n4CCOC3)n(C)n2)c(C)c1 [Example 13-103] | 0.00625
9 | Cc1cc(F)ccc1-c1nc(C)c(COC(=O)Nc2ccc3nn(C)cc3c2)s1 [Example 13-49] | 0.1
10 | CCc1nc(-c2ccc(F)cc2C)sc1NC(=O)OCc1ccc2nn(C)cc2c1 [Example 9-363] | 1
11 | COc1cc(Cl)ccc1-c1nc(C)c(CC(=O)N/N=C/c2cc(C)c(O)c(C)c2)s1 [Example 29-2, [2-(4-Chloro-2-methoxyphenyl)-4-methylthiazol-5-yl]acetic acid[1-(4-hydroxy-3,5-dimethylphenyl)methylidene]hydrazide] | 1
12 | Cc1cccnc1-c1nc(C)c(C(=O)N/N=C/c2cc(C)c(O)c(C)c2)s1 [Example 23-119] | 10
13 | Cc1ccc(-c2nc(C)c(NC(=O)OCc3ccc4c(c3)nc3n4CCCC3)s2)c(C)c1 [Example 9-113] | 0.025
14 | Cc1cc(/C=N/NC(=O)c2cc(-c3ccc(Cl)cc3)n[nH]2)cc(C)c1O [Example 21-21] | 1
15 | COc1ccc(/C=N/NC(=O)c2sc(-c3ncccc3Cl)nc2C)cc1O [Example 23-139] | 1
16 | COc1ccc(NC(=O)OCc2cc(-c3ccc(C)cc3OC)nn2C)cc1F [Example 13-72] | 1
17 | CCn1cc2cc(NC(=O)OCc3sc(-c4ccc(F)cc4Cl)nc3C)ccc2n1 [Example 13-56] | 0.1
18 | CCn1ncc2cc(COC(=O)Nc3sc(-c4ccc(Cl)cc4OC)nc3C)ccc21 [Example 9-136] | 0.00625
19 | Cc1ccc(-c2nc(C)c(NC(=O)OCc3ccc4ncsc4c3)s2)c(C)c1 [Example 36-4] | 10
20 | COc1ccccc1-c1nc(C)c(NC(=O)OCc2ccc3c(ccn3C)c2)s1 [Example 9-29] | 10
21 | COc1cc(Cl)ccc1-c1cc(C(=O)N/N=C/c2ccc3c(c2)nc2n3CCOC2)sn1 [Example 49-5, 3-(4-Chloro-2-methoxyphenyl)isothiazole-5-carboxylic acid[1-(3,4-dihydro-1H-2-oxa-4a,9-diaza-fluoren-7-yl)methylidene]hydrazide] | 1
22 | COc1cc(C)ccc1-c1nc(C)c(NC(=O)OCc2ccc3c(c2)nc2n3CC(O)C2)s1 (stereo not drawn) [Example 9-341] | 0.025
23 | Cc1ccccc1-c1nc(C)c(COC(=O)Nc2ccc3c(c2)ncn3C)s1 [Example 13-1, (1-Methyl-1H-benzimidazol-5-yl)carbamic acid 4-methyl-2-(2-methylphenyl)thiazol-5-ylmethyl ester] | 0.1

Row | Compound | minimal effective concentration [µM]
24 | COc1ccc(/C=N/NC(=O)c2cc(-c3ccc(Cl)cc3OC)cn2C)cc1 [Example 23-168, 4-(4-Chloro-2-methoxyphenyl)-1-methyl-1H-pyrrole-2-carboxylic acid (4-methoxybenzylidene)hydrazide] | 1
25 | COc1ccc(/C=N/NC(=O)c2sc(-c3ccc(Cl)cc3)nc2C)cc1OC [Example 23-42] | 10
26 | Cc1ccccc1-c1ncc(C(=O)N/N=C/c2cc(C)c(O)c(C)c2)s1 [Example 23-124] | 0.1
27 | COc1cc(C)ccc1-c1cc(COC(=O)Nc2ccc3c(c2)ncn3C)sn1 [Example 47-3] | 0.00625
28 | Cc1nc(-c2ccccc2Cl)sc1C(=O)N/N=C/c1ccc(OC(F)F)c(O)c1 [Example 23-116] | 1
29 | COc1cc(Cl)ccc1-c1nc(C)c(NC(=O)OCc2ccc3sc(C)nc3c2)s1 [Example 37-1, [2-(4-Chloro-2-methoxyphenyl)-4-methylthiazol-5-yl]carbamic acid 2-methylbenzothiazol-5-ylmethyl ester] | 0.1
30 | COc1ccc(/C=N/NC(=O)c2cnc(-c3ccccc3C)s2)cc1O [Example 23-50] | 0.1
31 | Cc1ccc(-c2nc(C3CC3)c(NC(=O)OCc3ccc4c(c3)ncn4C)s2)c(C)c1 [Example 9-185] | 0.1
32 | COc1cc(F)ccc1-c1nc(C)c(NC(=O)OCc2ccc3c(c2)nc2n3CCCC2)s1 [Example 9-111] | 0.1
33 | COc1ccccc1-c1nc(C)c(C(=O)N/N=C/c2ccc3cc[nH]c3c2)s1 [Example 23-91] | 0.1
34 | CCn1nc(-c2ccc(C)cc2OC)cc1COC(=O)Nc1ccc2c(c1)nc1n2CCOC1 [Example 13-102] | 0.025
35 | COc1ccc(/C=N/NC(=O)c2sc(-c3nccc4ccccc34)nc2C)cc1O [Example 23-27] | 10
36 | CCn1nc(-c2ccccc2OC)cc1NC(=O)OCc1ccc2c(c1)ncn2CC [Example 9-216] | 1
37 | CCn1cc2cc(COC(=O)Nc3sc(-c4ccc(OC)cc4OC)nc3C)ccc2n1 [Example 9-156] | 0.1
38 | COc1cc(F)ccc1-c1nc(C)c(NC(=O)OCc2ccc3c(c2)nnn3C)s1 [Example 9-14] | 0.025
39 | COc1cc(Cl)ccc1-c1cc(COC(=O)Nc2ccc3c(c2)nc2n3CCOC2)sn1 [Example 47-9] | 0.00625
40 | CCN(Cc1ccc(OC)cc1)NC(=O)c1sc(-c2ccccc2OC)nc1C [Example 16-12] | 1
41 | COc1ccc(/C=N/NC(=O)c2[nH]c(-c3ccc(Cl)cc3)nc2C)cc1O [Example 25-5, 2-(4-Chlorophenyl)-5-methyl-3H-imidazole-4-carboxylic acid[1-(3-hydroxy-4-methoxyphenyl)methylidene]hydrazide] | 10
42 | Cc1cc(/C=N/NC(=O)c2cc(-c3ccc(Cl)cc3)oc2C)cc(C)c1O [Example 23-167, 5-(4-Chlorophenyl)-2-methylfuran-3-carboxylic acid [1-(4-hydroxy-3,5-dimethylphenyl)methylidene]hydrazide] | 1
43 | CCn1cnc2cc(COC(=O)Nc3sc(-c4ccc(F)cc4OC)nc3C)ccc21 [Example 9-58] | 0.00625
44 | CCn1nc(-c2ccc(Cl)cc2OC)cc1COC(=O)Nc1ccc2c(c1)nc1n2CCOC1 [Example 13-100] | 0.00625
45 | COc1ccccc1-c1cc(COC(=O)Nc2ccc3c(c2)ncn3C)sn1 [Example 47-2] | 1
